According to PubChem BioAssay AID2060912 (Molecular Pharmacology Branch, DTP, NCI, 2025):

Tested on: HUVEC/MSC spheroids viability
Assay: Human HUVEC/MSC cell line growth inhibition [KRAS2];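 on viability, T/C: percent of DMSO vehicle control luminescence so 100% = untreated viability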
Conditions: for IC50: curve of first compound; for viability, T/C: stronger effect = lower value
Method in brief: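 Spheroids of pooled-donor HUVEC and hMSC (passage ≤5) without tumour cells were treated with KRAS-pathway inhibitors alone and combined with targeted agents. Top concentration was at or near clinical Cmax, or 10 microM when Cmax was unknown, descending in half-log steps.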

[1] = second compound 0.00949 µM, first compound 0.0316 µM
[2] = second compound 0.00949 µM, first compound 0.1 µM
[3] = second compound 0.03 µM, first compound 0.0316 µM
[4] = second compound 0.03 µM, first compound 0.1 µM
[5] = second compound 0.0949 µM, first compound 0.0316 µM
[6] = second compound 0.0949 µM, first compound 0.1 µM
[7] = second compound 0.3 µM, first compound 0.0316 µM
[8] = second compound 0.3 µM, first compound 0.1 µM
[9] = second compound 0.949 µM, first compound 0.0316 µM
[10] = second compound 0.949 µM, first compound 0.1 µM
[11] = second compound 3 µM, first compound 0.0316 µM
[12] = second compound 3 µM, first compound 0.1 µM
[13] = second compound 0.00949 µM, first compound 0.316 µM
[14] = second compound 0.00949 µM, first compound 1 µM
[15] = second compound 0.00949 µM, first compound 3.16 µM
[16] = second compound 0.00949 µM, first compound 10 µM
[17] = second compound 0.03 µM, first compound 0.316 µM
[18] = second compound 0.03 µM, first compound 1 µM
[19] = second compound 0.03 µM, first compound 3.16 µM
[20] = second compound 0.03 µM, first compound 10 µM
[21] = second compound 0.0949 µM, first compound 0.316 µM
[22] = second compound 0.0949 µM, first compound 1 µM
[23] = second compound 0.0949 µM, first compound 3.16 µM
[24] = second compound 0.0949 µM, first compound 10 µM
[25] = second compound 0.3 µM, first compound 0.316 µM
[26] = second compound 0.3 µM, first compound 1 µM
[27] = second compound 0.3 µM, first compound 3.16 µM
[28] = second compound 0.3 µM, first compound 10 µM
[29] = second compound 0.949 µM, first compound 0.316 µM
[30] = second compound 0.949 µM, first compound 1 µM
[31] = second compound 0.949 µM, first compound 3.16 µM
[32] = second compound 0.949 µM, first compound 10 µM
[33] = second compound 3 µM, first compound 0.316 µM
[34] = second compound 3 µM, first compound 1 µM
[35] = second compound 3 µM, first compound 3.16 µM
[36] = second compound 3 µM, first compound 10 µM

Structure (SMILES): CN(C)C/C=C/C(=O)Nc1cc2c(Nc3ccc(F)c(Cl)c3)ncnc2cc1O[C@H]1CCOC1 + C=CC(=O)N1CCN(c2nc(OCC3CCCN3C)nc3c2CCN(c2cccc4cccc(C)c24)C3)CC1CC#N
- IC50 (second compound 0.00949 µM): > 100 nM
- IC50 (second compound 0.03 µM): > 100 nM
- IC50 (second compound 0.0949 µM): > 100 nM
- IC50 (second compound 0.3 µM): > 100 nM
- IC50 (second compound 0.949 µM): > 100 nM
- IC50 (second compound 3 µM): > 100 nM
- viability, T/C (second compound 0.00949 µM, first compound 0.000316 µM): 79.2%
- viability, T/C (second compound 0.00949 µM, first compound 0.001 µM): 95.1%
- viability, T/C (second compound 0.00949 µM, first compound 0.00316 µM): 88.5%
- viability, T/C (second compound 0.00949 µM, first compound 0.01 µM): 82.1%
- viability, T/C [1]: 67.7%
- viability, T/C [2]: 74.4%
- viability, T/C (second compound 0.03 µM, first compound 0.000316 µM): 92.5%
- viability, T/C (second compound 0.03 µM, first compound 0.001 µM): 92.5%
- viability, T/C (second compound 0.03 µM, first compound 0.00316 µM): 90.8%
- viability, T/C (second compound 0.03 µM, first compound 0.01 µM): 78.8%
- viability, T/C [3]: 88.4%
- viability, T/C [4]: 99.2%
- viability, T/C (second compound 0.0949 µM, first compound 0.000316 µM): 85.7%
- viability, T/C (second compound 0.0949 µM, first compound 0.001 µM): 84.9%
- viability, T/C (second compound 0.0949 µM, first compound 0.00316 µM): 82.3%
- viability, T/C (second compound 0.0949 µM, first compound 0.01 µM): 79.8%
- viability, T/C [5]: 82.9%
- viability, T/C [6]: 95.2%
- viability, T/C (second compound 0.3 µM, first compound 0.000316 µM): 82.6%
- viability, T/C (second compound 0.3 µM, first compound 0.001 µM): 84.5%
- viability, T/C (second compound 0.3 µM, first compound 0.00316 µM): 76.1%
- viability, T/C (second compound 0.3 µM, first compound 0.01 µM): 73.4%
- viability, T/C [7]: 80.4%
- viability, T/C [8]: 63%
- viability, T/C (second compound 0.949 µM, first compound 0.000316 µM): 63.9%
- viability, T/C (second compound 0.949 µM, first compound 0.001 µM): 69.8%
- viability, T/C (second compound 0.949 µM, first compound 0.00316 µM): 72.3%
- viability, T/C (second compound 0.949 µM, first compound 0.01 µM): 80%
- viability, T/C [9]: 72.5%
- viability, T/C [10]: 73%
- viability, T/C (second compound 3 µM, first compound 0.000316 µM): 82.1%
- viability, T/C (second compound 3 µM, first compound 0.001 µM): 90.3%
- viability, T/C (second compound 3 µM, first compound 0.00316 µM): 82%
- viability, T/C (second compound 3 µM, first compound 0.01 µM): 73.8%
- viability, T/C [11]: 79%
- viability, T/C [12]: 93.7%

Structure (SMILES): COC(=O)c1ccc2c(C(=Nc3ccc(N(C)C(=O)CN4CCN(C)CC4)cc3)c3ccccc3)c(O)[nH]c2c1 + C=CC(=O)N1CCN(c2nc(OCC3CCCN3C)nc3c2CCN(c2cccc4cccc(C)c24)C3)CC1CC#N
- IC50 (second compound 0.00949 µM): 2180 nM
- IC50 (second compound 0.03 µM): 2220 nM
- IC50 (second compound 0.0949 µM): 2910 nM
- IC50 (second compound 0.3 µM): 2810 nM
- IC50 (second compound 0.949 µM): 1640 nM
- IC50 (second compound 3 µM): 894 nM
- viability, T/C [1]: 91.3%
- viability, T/C [2]: 82.5%
- viability, T/C [13]: 89.5%
- viability, T/C [14]: 57.8%
- viability, T/C [15]: 45.7%
- viability, T/C [16]: 0.43%
- viability, T/C [3]: 81.1%
- viability, T/C [4]: 102%
- viability, T/C [17]: 76.4%
- viability, T/C [18]: 52.6%
- viability, T/C [19]: 52.6%
- viability, T/C [20]: 0.35%
- viability, T/C [5]: 76%
- viability, T/C [6]: 78.3%
- viability, T/C [21]: 93.3%
- viability, T/C [22]: 68.1%
- viability, T/C [23]: 49.2%
- viability, T/C [24]: 0.37%
- viability, T/C [7]: 60.5%
- viability, T/C [8]: 78.7%
- viability, T/C [25]: 78.3%
- viability, T/C [26]: 70.3%
- viability, T/C [27]: 47.7%
- viability, T/C [28]: 0.35%
- viability, T/C [9]: 57.5%
- viability, T/C [10]: 73.2%
- viability, T/C [29]: 91.1%
- viability, T/C [30]: 55.5%
- viability, T/C [31]: 34.6%
- viability, T/C [32]: 0.31%
- viability, T/C [11]: 65.2%
- viability, T/C [12]: 96.5%
- viability, T/C [33]: 84.3%
- viability, T/C [34]: 46.6%
- viability, T/C [35]: 0.43%
- viability, T/C [36]: 0.33%

Structure (SMILES): O=C(c1cc(Cc2n[nH]c(=O)c3ccccc23)ccc1F)N1CCN(C(=O)C2CC2)CC1 + C=CC(=O)N1CCN(c2nc(OCC3CCCN3C)nc3c2CCN(c2cccc4cccc(C)c24)C3)CC1CC#N
- IC50 (second compound 0.00949 µM): > 10000 nM
- IC50 (second compound 0.03 µM): > 10000 nM
- IC50 (second compound 0.0949 µM): > 10000 nM
- IC50 (second compound 0.3 µM): > 10000 nM
- IC50 (second compound 0.949 µM): > 10000 nM
- IC50 (second compound 3 µM): > 10000 nM
- viability, T/C [1]: 80.8%
- viability, T/C [2]: 101%
- viability, T/C [13]: 89.4%
- viability, T/C [14]: 82.3%
- viability, T/C [15]: 80.9%
- viability, T/C [16]: 112%
- viability, T/C [3]: 78.2%
- viability, T/C [4]: 96.2%
- viability, T/C [17]: 98.7%
- viability, T/C [18]: 81.2%
- viability, T/C [19]: 103%
- viability, T/C [20]: 83.7%
- viability, T/C [5]: 91.8%
- viability, T/C [6]: 87.8%
- viability, T/C [21]: 77.2%
- viability, T/C [22]: 101%
- viability, T/C [23]: 88.4%
- viability, T/C [24]: 100%
- viability, T/C [7]: 71%
- viability, T/C [8]: 91.9%
- viability, T/C [25]: 86.1%
- viability, T/C [26]: 73.7%
- viability, T/C [27]: 82.8%
- viability, T/C [28]: 81.8%
- viability, T/C [9]: 68.4%
- viability, T/C [10]: 84.9%
- viability, T/C [29]: 84.1%
- viability, T/C [30]: 88.8%
- viability, T/C [31]: 89.8%
- viability, T/C [32]: 85.2%
- viability, T/C [11]: 91.5%
- viability, T/C [12]: 79.5%
- viability, T/C [33]: 111%
- viability, T/C [34]: 102%
- viability, T/C [35]: 107%
- viability, T/C [36]: 89.7%
